Converted amounts (≈) assume the structure as drawn. Where two headings read alike, the source gives them in different places.
Key:
[1] = Compression simulation experiments; type: physicochemical; conditions: for Comments: color / Comments: crystallinity / XRPD: compressed 5 minutes
Method: About 20 mg of Compound 1 Form B was compressed for 5 minutes under 2 MPa and 10 MPa with a hydraulic press. Potential form change and degree of crystallinity were evaluated by XRPD.

[2] = Approximate solubility at 25° C. and 50° C. (visual); type: physicochemical
Method: About 5 mg of Compound 1 Form A was weighed to a 2 mL glass vial. 20 μL aliquots of each solvent were added to dissolve the drug substance at 25° C. About 10 mg of Compound 1 Form A was weighed to a 2 mL glass vial. 20 μL aliquots of each solvent were added to dissolve the drug substance at 50° C. Vortex and sonication were applied to assist dissolution. Maximum volume of each solvent added was 1 mL. Approximate solubility was determined by visual observation.
About 5 mg of Compound 1 Form B was weighed to a 2 mL glass vial. 20 μL aliquots of each solvent were added to dissolve the drug substance at 25° C. About 10 mg of Compound 1 Form B was weighed to a 2 mL glass vial. […] aliquots of each solvent were added to dissolve the drug substance at 50° C. Vortex and sonication were applied to assist dissolution. Maximum volume of each solvent added is 1 mL. Approximate solubility was determined by visual observation.

[3] = Salt screening by re-slurry; type: physicochemical
[4] = system: BRAF V600E mutant A375-luciferase intracranial model; test: Efficacy in A375-luciferase intracranial model; conditions: 35 mg/kg PO QD; vehicle median survival 18 days
Method: For the efficacy study, agents were tested in A375 human melanoma cancer cell derived xenografts (CDX). […] The A375 tumor cells were maintained in vitro in DMEM medium supplemented with 10% fetal bovine serum and 1% Penicillin-Streptomycin at 37° C. in an atmosphere of 5% CO2 in air. The tumor cells were routinely subcultured twice weekly. The cells growing in an exponential growth phase were harvested and counted for tumor inoculation.
For this CNS study, A375 cells with a luciferase tag for tracking tumor cell signal, were injected intracranially into 6-8 week old female BALB/c nude mice. […] The mice were anaesthetized, restrained, and sterilized prior to surgery. […] A 2 mm hole was created to the right of the anterior fontanel and 0.5 mm above the coronal on the skull with a cranial drill. Cell suspensions in 20% Matrigel were mixed and aspirated into the injector carefully to avoid bubbles and wiped to avoid extracranial tumorigenesis. The needle was inserted vertically into the cranial hole and the cell mixture was slowly injected for two minutes and held for another minute to decrease the drainage of the cell suspension. The wound was closed, and a subcutaneous injection of 5 mg/kg Meloxicam was given to relieve the pain and continued for three days. The mice were monitored closely until they woke up after the surgery. After inoculation, the animals were checked daily for morbidity and mortality.
The administration of the test agents began three days after inoculation. […] Measurements for the presence of the A375 luciferase signal within the CNS were done with IVIS Lumina III machine. Images were collected twice weekly to follow the growth of the models. The tumor-bearing mice were weighed and intraperitoneally administered luciferin (Perkin Elmer Inc-122799) at a dosage of 150 mg/kg. After ten minutes, mice were pre-anesthetized with the mixture gas of oxygen and isoflurane. The bioluminescence value at fifteen minutes post luciferin injection was recorded as the final value and plotted. The endpoint for individual mice was reached when the mouse body weight decreased by 20% when compared to their starting weight.
The luciferase signal for the mice removed from study were not carried forward, so a sudden drop in luciferase signal over time is due to mice with a heavy tumor burden being terminated and their high luciferase signal not being carried forward.

[5] = Plasma and tumor pharmacokinetics in A2058 xenograft mice; type: in vivo, BALB/c nude mice; conditions: Compound 1 10 mg/kg; for concentration at 1 h / concentration at 6 h / concentration at 12 h / concentration at 24 h / concentration at 48 h: BALB/c nude, mouse, oral, single dose p.o., Encorafenib 35 mg/kg, Dabrafenib 100 mg/kg; for Time of peak concentration in plasma / Time of peak concentration in tumor: single oral dose, encorafenib 35 mg/kg, dabrafenib 100 mg/kg
Method: For the PKPD study, agents were administered to BALB/c nude mice bearing A2058 human melanoma xenografts. Compound 1, encorafenib and dabrafenib were dosed once orally on day 1. Compound 1 was dosed at 10 mg/kg, encorafenib was dosed at 35 mg/kg and dabrafenib was dosed at 100 mg/kg.
To collect non-termination plasma samples, blood samples were collected into the 1.5 mL Eppendorf tubes containing 3 μL of 0.5 M K2 ethylenediaminetetraacetic acid (EDTA-K2). Anticoagulant blood samples were centrifuged at 2500×g at 4° C. for fifteen minutes.
To collect the termination plasma samples, mice were euthanized at predetermined time points after the treatment. Blood samples from the mice were collected into the 1.5 mL Eppendorf tubes containing […] of 0.5 M K2 ethylenediaminetetraacetic acid (EDTA-K2). Anticoagulant blood samples were centrifuged at 2500×g at 4° C. for fifteen minutes.
Tumor samples were collected at predicted time for pharmacokinetic (PK), Western Blot (WB) and formalin-fixed paraffin-embedded (FFPE) sample analysis. The tumor was dissected out, and the tumor sample was split into four parts, from which the 1st part was used for PK analysis, the 2nd part was used for WB analysis, the third part was used for FFPE analysis, and the 4th part was used as a backup for the study. PK and WB samples were transferred into pre-labeled tubes. Samples in tubes were snap-frozen in liquid nitrogen within two minutes after dissection. The samples were stored at −80° C. until analysis. Tumor samples for FFPE analysis were collected and fixed in formalin for twenty-four to forty-eight hours, after which FFPE blocks were prepared for analysis.
The harvested plasma and tumor samples were processed for pharmacokinetics analysis by LC-MS/MS with a concentration range of 0.200˜200 ng/mL for encorafenib, Dabrafenib and Compound 1 in tumor homogenate, 1.00˜1,000 ng/mL for Dabrafenib in plasma and 10.0˜10,000 ng/mL for Compound 1 and encorafenib in plasma.

[6] = system: patient-derived xenograft (PDX) of non-small cell lung carcinoma (NSCLC) with BRAF V600E mutation; test: Efficacy in BRAF V600E NSCLC PDX model
[7] = plasma, read-out: Concentration in Plasma ± SEM
[8] = tumor, read-out: Concentration in Tumor ± SEM

CCN(C)S(=O)(=O)Nc1ccc(F)c(Oc2ccc3ncn([C@H]4COC5(CCN(C(=O)CC6(O)CCN(c7cc8c(cc7F)c(N7CCC(=O)NC7=O)nn8C)CC6)CC5)C4)c(=O)c3c2)c1C#N [Compound 1 Form B]
Morphic form stability under compression ([1]; 2 MPa and 10 MPa): excellent morphic form stability
Comments: color ([1]; 2 MPa): Slight discoloration.
Comments: crystallinity ([1]; 2 MPa): Slight decrease in crystallinity;
XRPD ([1]; 2 MPa): Form B
Comments: color ([1]; 10 MPa): Slight discoloration.
Comments: crystallinity ([1]; 10 MPa): Slight decrease in crystallinity;
XRPD ([1]; 10 MPa): Form B
solubility ([2]; 1,4-Dioxane, 25° C., listed as Form B): 20~25 mg/mL
solubility ([2]; 1,4-Dioxane, 50° C., listed as Form B): 28~40 mg/mL
solubility ([2]; 2-MeTHF, 25° C.): <5 mg/mL
solubility ([2]; 2-MeTHF, 50° C.): <5 mg/mL
solubility ([2]; Acetone, 25° C., listed as Form B): <5 mg/mL
solubility ([2]; Acetone, 50° C., listed as Form B): <5 mg/mL
solubility ([2]; Acetonitrile, 25° C., listed as Form B): <5 mg/mL
solubility ([2]; Acetonitrile, 50° C., listed as Form B): <5 mg/mL
solubility ([2]; DCM, 25° C., listed as Form B): 83~125 mg/mL
solubility ([2]; DMSO, 25° C.): at least 250 mg/mL
solubility ([2]; DMSO, 25° C., listed as Form B): >250 mg/mL
solubility ([2]; Ethanol, 50° C.): <5 mg/mL
solubility ([2]; Heptane, 50° C.): <5 mg/mL
solubility ([2]; Isopropanol, 50° C.): <5 mg/mL
solubility ([2]; MTBE, 50° C.): <5 mg/mL
solubility ([2]; Methanol, 25° C.): <5 mg/mL
solubility ([2]; Methanol, 50° C.): <5 mg/mL
solubility ([2]; THF, 25° C., listed as Form B): 10~13 mg/mL
solubility ([2]; THF, 50° C., listed as Form B): 16~20 mg/mL
solubility ([2]; Toluene, 50° C.): <5 mg/mL
solubility ([2]; Water, 50° C.): <5 mg/mL

CCN(C)S(=O)(=O)Nc1ccc(F)c(Oc2ccc3ncn([C@H]4COC5(CCN(C(=O)CC6(O)CCN(c7cc8c(cc7F)c(N7CCC(=O)NC7=O)nn8C)CC6)CC5)C4)c(=O)c3c2)c1C#N [Compound 1 Form A]
Re-slurry result ([3]; Ca(OH)2, Ethyl Acetate): Almost amorphous
Re-slurry result ([3]; Choline, Ethyl Acetate): Sticky material
Re-slurry result ([3]; Choline, MTBE): Sticky material
Re-slurry result ([3]; Choline, Toluene): Sticky material
Re-slurry result ([3]; Methylglucamine, Ethyl Acetate): Form A
solubility ([2]; 1,4-Dioxane, 25° C., listed as Form A): >250 mg/mL
solubility ([2]; 1,4-Dioxane, 50° C., listed as Form A): >500 mg/mL
solubility ([2]; 2-MeTHF, 25 °C, organic solvent or mixture, thermodynamic from solid, 2-MeTHF, 25° C., read-out: Solubility): 5 to 7 mg/mL (≈ 5.22 to 7.31 mM)
solubility ([2]; 2-MeTHF, 50 °C, organic solvent or mixture, thermodynamic from solid, 2-MeTHF, 50° C., read-out: Solubility): < 10 mg/mL
solubility ([2]; Acetone, 25° C., listed as Form A): 13 to 17 mg/mL
solubility ([2]; Acetone, 50° C., listed as Form A): 25 to 29 mg/mL
solubility ([2]; Acetonitrile, 25° C., listed as Form A): 13 to 17 mg/mL
solubility ([2]; Acetonitrile, 50° C., listed as Form A): 25 to 33 mg/mL
solubility ([2]; DCM, 25° C., listed as Form A): >250 mg/mL
solubility ([2]; DMSO, 25 °C, organic solvent or mixture, thermodynamic from solid, DMSO, 25° C., read-out: Solubility): ≥ 250 mg/mL
solubility ([2]; DMSO, 50 °C, organic solvent or mixture, thermodynamic from solid, DMSO, 50° C., read-out: Solubility): > 500 mg/mL
solubility ([2]; MTBE, 25 °C, organic solvent or mixture, thermodynamic from solid, MTBE, 25° C., read-out: Solubility): < 5 mg/mL
solubility ([2]; MTBE, 50 °C, organic solvent or mixture, thermodynamic from solid, MTBE, 50° C., read-out: Solubility): < 10 mg/mL
solubility ([2]; THF, 25° C., listed as Form A): >250 mg/mL
solubility ([2]; THF, 50° C., listed as Form A): >500 mg/mL
solubility ([2]; ethanol, 25 °C, organic solvent or mixture, thermodynamic from solid, Ethanol, 25° C., read-out: Solubility): < 5 mg/mL
solubility ([2]; ethanol, 50 °C, organic solvent or mixture, thermodynamic from solid, Ethanol, 50° C., read-out: Solubility): < 10 mg/mL
solubility ([2]; ethyl acetate, 25 °C, organic solvent or mixture, thermodynamic from solid, Ethyl acetate, 25° C., read-out: Solubility): < 5 mg/mL
solubility ([2]; ethyl acetate, 50 °C, organic solvent or mixture, thermodynamic from solid, Ethyl acetate, 50° C., read-out: Solubility): < 10 mg/mL
solubility ([2]; heptane, 25 °C, organic solvent or mixture, thermodynamic from solid, Heptane, 25° C., read-out: Solubility): < 5 mg/mL
solubility ([2]; heptane, 50 °C, organic solvent or mixture, thermodynamic from solid, Heptane, 50° C., read-out: Solubility): < 10 mg/mL
solubility ([2]; isopropanol, 25 °C, organic solvent or mixture, thermodynamic from solid, Isopropanol, 25° C., read-out: Solubility): < 5 mg/mL
solubility ([2]; isopropanol, 50 °C, organic solvent or mixture, thermodynamic from solid, Isopropanol, 50° C., read-out: Solubility): < 10 mg/mL
solubility ([2]; isopropyl acetate, 25 °C, organic solvent or mixture, thermodynamic from solid, Isopropyl acetate, 25° C., read-out: Solubility): < 5 mg/mL
solubility ([2]; isopropyl acetate, 50 °C, organic solvent or mixture, thermodynamic from solid, Isopropyl acetate, 50° C., read-out: Solubility): < 10 mg/mL
solubility ([2]; methanol, 25 °C, organic solvent or mixture, thermodynamic from solid, Methanol, 25° C., read-out: Solubility): ~3 mg/mL (≈ 3.13 mM)
solubility ([2]; methanol, 50 °C, organic solvent or mixture, thermodynamic from solid, Methanol, 50° C., read-out: Solubility): 5 to 10 mg/mL (≈ 5.22 to 10.4 mM)
solubility ([2]; methyl ethyl ketone, 25 °C, organic solvent or mixture, thermodynamic from solid, Methyl ethyl ketone, 25° C., read-out: Solubility): 14 to 17 mg/mL (≈ 14.6 to 17.7 mM)
solubility ([2]; methyl ethyl ketone, 50 °C, organic solvent or mixture, thermodynamic from solid, Methyl ethyl ketone, 50° C., read-out: Solubility): 25 to 33 mg/mL (≈ 26.1 to 34.4 mM)
solubility ([2]; toluene, 25 °C, organic solvent or mixture, thermodynamic from solid, Toluene, 25° C., read-out: Solubility): < 5 mg/mL
solubility ([2]; toluene, 50 °C, organic solvent or mixture, thermodynamic from solid, Toluene, 50° C., read-out: Solubility): < 10 mg/mL
solubility ([2]; water, 25 °C, water, thermodynamic from solid, Water, 25° C., read-out: Solubility): < 5 mg/mL
solubility ([2]; water, 50 °C, water, thermodynamic from solid, Water, 50° C., read-out: Solubility): < 10 mg/mL

COC(=O)N[C@@H](C)CNc1nccc(-c2cn(C(C)C)nc2-c2cc(Cl)cc(NS(C)(=O)=O)c2F)n1 [encorafenib]
Survival (average) [4]: 46 days
concentration at 1 h [5, 7]: 14500 ± 1630 ng/mL
concentration at 6 h [5, 7]: 1890 ± 654 ng/mL
concentration at 12 h [5, 7]: 397 ± 106 ng/mL
concentration at 24 h [5, 7]: 138 ± 112 ng/mL
concentration at 6 h [5, 8]: 289 ± 73 ng/g
concentration at 12 h [5, 8]: 58.8 ± 18.8 ng/g
concentration at 24 h [5, 8]: 64.7 ± 36.4 ng/g
concentration at 48 h [5, 8]: 3.06 ng/g
Time of peak concentration in plasma [5]: one
Time of peak concentration in tumor [5]: six

CC(C)(C)c1nc(-c2cccc(NS(=O)(=O)c3c(F)cccc3F)c2F)c(-c2ccnc(N)n2)s1 [dabrafenib]
concentration at 1 h [5, 7]: 5500 ± 1250 ng/mL
concentration at 6 h [5, 7]: 790 ± 157 ng/mL
concentration at 12 h [5, 7]: 189 ± 133 ng/mL
concentration at 24 h [5, 7]: 61.3 ± 53.4 ng/mL
concentration at 6 h [5, 8]: 480 ± 63.7 ng/g
concentration at 12 h [5, 8]: 81.9 ± 40.2 ng/g
concentration at 24 h [5, 8]: 60.1 ng/g
concentration at 48 h [5, 8]: 8.55 ± 4.03 ng/g
Time of peak concentration in plasma [5]: one
Time of peak concentration in tumor [5]: six
Status by day 28 ([6]; dabrafenib 100 mg/kg PO QD plus trametinib 0.1 mg/kg PO QD): reached tumor burden endpoint
Status by day 28 ([6]; single agent, trametinib 0.1 mg/kg PO QD, dabrafenib 100 mg/kg PO QD): reached tumor burden endpoint

Source: patent publication US20250289827A1, “MORPHIC FORMS OF A MUTANT BRAF DEGRADER AND METHODS OF MANUFACTURE THEREOF” (C4 THERAPEUTICS, INC., priority 2022, published 2025)
